Marks after values point to notes of the source that are not given here.
Experiments:
Assay type in all cases: in vivo, mouse
[1] = Body weight, administration as admixture with food (Example 2)
Protocol: (§1) KK-A^y/Ta Jcl Mice (male, 6- to 7-weeks aged, the number of cases; 8 animals) were treated through individual administration, in the form of an admixture with a food, of the Test Compound 2 (N-allyl-N-{(2E)-3-[4-({4-[amino(imino)methyl]phenoxy}-carbonyl)phenyl]-2-methyl-2-propenoyl}glycine/dimethane-sulfonate) of the present invention and the Control Compound 1 (5-(4-[2-(5-ethylpyridine-2-yl)ethoxy]benzyl)-1,3-thiazolidine-2,4-dione; pioglitazone) at the daily dose of 16.8 mg/100 g-food for 7 consecutive days, whereby the control group was fed with an ordinary food alone.
(§2) Blood was drawn from the tail vein individually on the day (Day 1) preceding to administration of the Test Compound in the form of an admixture with a food, and on Days 2, 5, 7 and 14 of administration, and the blood samples were subjected to measurement of the blood-sugar level in accordance with the same procedure as described in Example 1, while, at the same time, the animals were weighed.

KK-A^y/Ta Jcl mice [2] = test: Blood-sugar level, administration as admixture with food (Example 2)
Protocol: as §1, §2

KK-A^y/Ta Jcl mice [3] = test: Glucose loading test after repeated administration for 14 days (Example 1)
Protocol: As from Day 14 afterwards, the animals after being fasted for 18 hours or more were loaded orally with a glucose solution (2 g/kg, 10 mL/kg), whereby the blood-sugar levels were measured before, and 120 min. after, the said glucose loading. Each of the compounds was given orally to the animals 3 hours prior to the glucose loading, and the whole blood was drawn from each of the animals under anesthesia. Each of the said blood samples was centrifuged to yield a blood plasma, and the resultant blood plasmas were all preserved under freezing in a ultra-low-temperature freezer for subsequent use in the below-described measurements.
The blood-sugar level, total cholesterol level (hereinafter referred to briefly as “TC level”) and triglyceride level (hereinafter referred to briefly as “TG level”) were detected individually in accordance with the hexokinase/G-6-PDH method, enzyme method and GPO/HDAOS method, and measured with use of Biochemical Auto-Analyzer (Model AU 400, manufactured by Olympus Co. of Japan). The plasma insulin level (hereinafter referred to briefly as “IRI level”) and the plasma glucagon level (hereinafter referred to briefly as “IRG level”) were detected individually with the ELISA method (Lebisinsulin Mouse Insulin Kit, produced by K.K. Shibayagi of Japan) and the ELISA method (YK090 Glucagon EIA Kit, produced by K.K. Yanaihara Kenkyuu-sho of Japan), followed by measurement with use of a plate reader (Immuno Mini NJ-2300, Nalge Nunc International K.K. of Japan).
(§3) The blood-sugar, TC, TG, IRI and IRG levels and the body weight were expressed as a mean value±standard deviation as calculated for each group of animals. With reference to the significance test between the group treated through administration of the medium and each group treated through administration of the compound, the F test was effected to analyze the data and then, the Student's t-test and Aspin-Welch's t-test were used in cases where the variance between the two groups was determined to be equal and unequal, respectively. Referring to the significance level, less than 5% (p<0.05) was considered significant, and the significance level was expressed as divided into the two events of less than 1% (**: p<0.01) and less than 5% (*: p<0.05).

KK-A^y/Ta Jcl mice [4] = test: Blood-sugar level after single and repeated oral administration (Example 1)
Protocol: On the day of initiation of administration (Day 1 of Administration), the obese/spontaneously type II diabetic mice; KK-A^y/Ta Jcl mice (male, 6-weeks aged, n=8) were treated through individual oral administration of the Test Compound 1 (ethyl N-allyl-N—[(E)-2-methyl-3-[4-(4-amidinophenoxycarbonyl)-phenyl]propenoyl]aminoacetate/methanesulfonate) of the present invention and the Control Compound 1 (5-{4-[2-(5-ethylpyridine-2-yl)ethoxy]benzyl}-1,3-thiazolidine-2,4-dione; pioglitazone) at the daily dose of 30 mg/kg, or the control medium (0.5% CMC), and blood was drawn from each animal through the orbital venous plexus 6 hours after administration. The blood-sugar levels were measured in accordance with the enzyme electrode method by use of Antosense II (manufactured by Daikin Kogyo KK of Japan). The said test was carried out while the animals were allowed free access to food and water.
Following the above-described single administration, the repeated, once-a-day forced oral administration of each compound was performed at the same daily dose for the total period of 14 consecutive days. On Days 3 and 11, blood was drawn in the same manner as described above 6 hours after administration of each compound, followed by measurement of the blood-sugar level.
as §3

[5] = day preceding administration (baseline), 16.8 mg/100 g-food group
[6] = repeated once-a-day oral 30 mg/kg, 6 hours after administration

Structure (SMILES): CCc1ccc(CCOc2ccc(CC3SC(=O)NC3=O)cc2)nc1 (stereo not shown) [Control Compound 1, 5-{4-[2-(5-ethylpyridine-2-yl)ethoxy]benzyl}-1,3-thiazolidine-2,4-dione, reference compound]
- Body weight Day 2 ([1]; 16.8 mg/100 g-food admixture): 30.4 ± 0.7 g
- Body weight Day 5 ([1]; 16.8 mg/100 g-food admixture): 33.3 ± 0.8 g
- Body weight Day 7 ([1]; 16.8 mg/100 g-food admixture): 34.6 ± 0.6 g
- Body weight Day 14 ([1]; 16.8 mg/100 g-food admixture): 39.4 ± 1.1 g
- Body weight Day 1 [1, 5]: 29.8 ± 0.7 g
- Effect on body weight (in words) ([1]; food admixture 16.8 mg/100 g-food, time course): tendency to elevate the body weight
- Blood-sugar level Day 2 (KK-A^y/Ta Jcl mice [2]; 16.8 mg/100 g-food admixture): 323.3 ± 15.7 mg/dL
- Blood-sugar level Day 5 (KK-A^y/Ta Jcl mice [2]; 16.8 mg/100 g-food admixture): 350.0 ± 13.6 mg/dL
- Blood-sugar level Day 7 (KK-A^y/Ta Jcl mice [2]; 16.8 mg/100 g-food admixture): 311.3 ± 19.4 mg/dL
- Blood-sugar level Day 14 (KK-A^y/Ta Jcl mice [2]; 16.8 mg/100 g-food admixture): 270.5 ± 10.8 mg/dL
- Blood-sugar level Day 1 (KK-A^y/Ta Jcl mice [2]; [5]): 309.3 ± 21.2 mg/dL
- Blood-sugar level before glucose loading (KK-A^y/Ta Jcl mice [3]; after 14 days 30 mg/kg p.o., fasted, compound 3 hours prior to loading): 156.9 ± 5.3 mg/dL
- Blood-sugar level 120 Min. after glucose loading (KK-A^y/Ta Jcl mice [3]; after 14 days 30 mg/kg p.o., glucose 2 g/kg orally): 236.9 ± 19.6 mg/dL
- Blood-sugar lowering action in the glucose loading test vs medium control group (in words) (KK-A^y/Ta Jcl mice [3]; after repeated administration for 14 consecutive days): not observed to produce any significant difference
- Blood-sugar level before administration (KK-A^y/Ta Jcl mice [4]; Day 1, before single oral administration of 30 mg/kg (baseline)): 440.6 ± 24.3 mg/dL
- Blood-sugar level Day 3 (KK-A^y/Ta Jcl mice [4]; [6]): 224.4 ± 14.4 mg/dL
- Blood-sugar level Day 11 (KK-A^y/Ta Jcl mice [4]; [6]): 220.3 ± 8.2* mg/dL
- Blood-sugar lowering action vs control medium group (in words) (KK-A^y/Ta Jcl mice [4]; single administration 30 mg/kg, 6 hours after administration): failed to elicit any significant blood-sugar lowering action
- Blood-sugar level 6 hrs. after administration (KK-A^y/Ta Jcl mice [4]; single oral administration, 30 mg/kg): 287.9 ± 28.6 mg/dL

— patent US7671057B2, “Therapeutic agent for type II diabetes comprising protease-inhibiting compound” (Ono Pharmaceutical Co., Ltd., priority 2004, dated 2010)
